Active and inactive are the calls of the source. The rule behind the calls is not given here.
Columns and labels:
[1] = Subacute toxicity in ICR mouse assessed as pathological change in kidney at 500 to 100 mg/kg, IG measured for 10 days by hematoxylin and eosin dye based light microscopy; format: organism-based; settings: in vivo, po, 240 h, dose 500-100 mg/kg, time 10 day
J774.A1 [2] = test: Antiinflammatory activity against mouse J774A.1 cells assessed as inhibition of LPS-stimulated TNFalpha mRNA expression pretreated for 2 hrs followed by stimulated with LPS by RT-qPCR analysis; format: functional, cell-based; settings: dose 2.5-10 µM
J774.A1 [3] = test: Antiinflammatory activity against mouse J774A.1 cells assessed as inhibition of LPS-stimulated IL6 release measured at 10 uM after 30 mins by ELISA relative to control; format: functional; settings: J774.A1, 0.5 h
Mus musculus [4] = test: Antiinflammatory activity against LPS-induced acute lung injury C57 mouse model assessed as decrease in LPS-induced lung wet to dry weight ratio at 20 mg/kg, po thrice at 12 hrs interval; format: functional, organism-based
[5] = target: Transcription factor p65 (Mus musculus) (UniProt Q04207); test: Inhibition of P65 entry into nucleus in mouse J774A.1 cells assessed as density quantification pretreated at 10 uM for 2 hrs followed by induced with LPS for 30 mins by immunofluorescence analysis; format: cell-based; settings: J774.1, time 2.5 hrs
[6] = target: T1, NF-kappa-B inhibitor alpha (Mus musculus) (UniProt Q9Z1E3); test: […] in mouse J774A.1 cells pretreated at 10 uM for 2 hrs followed by induced with LPS for 30 mins by Western blot analysis; format: cell-based; settings: J774.1
T1 sequence (whole entry): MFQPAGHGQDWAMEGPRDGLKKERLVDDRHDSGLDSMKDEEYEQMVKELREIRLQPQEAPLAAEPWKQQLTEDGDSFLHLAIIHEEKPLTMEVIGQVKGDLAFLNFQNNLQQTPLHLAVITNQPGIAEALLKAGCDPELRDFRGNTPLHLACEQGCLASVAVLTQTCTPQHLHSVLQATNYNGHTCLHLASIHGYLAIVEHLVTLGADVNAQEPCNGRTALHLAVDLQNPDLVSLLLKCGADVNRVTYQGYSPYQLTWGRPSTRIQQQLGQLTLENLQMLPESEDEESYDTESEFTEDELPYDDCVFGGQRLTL

J774.A1 [7] = test: Antiinflammatory activity against mouse J774A.1 cells assessed as inhibition of LPS-stimulated TNFalpha release measured at 10 uM after 30 mins by ELISA relative to control; format: functional; settings: J774.A1, 0.5 h
Mus musculus [8] = test: Antiinflammatory activity against LPS-induced acute lung injury C57 mouse model assessed as decrease in LPS-induced IL-6level in blood at 20 mg/kg, po thrice at 12 hrs interval; format: functional, organism-based
Mus musculus [9] = test: Antiinflammatory activity against LPS-induced acute lung injury C57 mouse model assessed as reduction in LPS-induced neutrophil numbers in alveolar lavage fluid at 20 to 40 mg/kg, po thrice at 12 hrs interval followed 30 mins treated with LPS; format: functional, organism-based; settings: dose 20-40 mg/kg, time 36.5 hrs
Mus musculus [10] = test: Antiinflammatory activity against LPS-induced acute lung injury C57 mouse model assessed as decrease in LPS-induced neutrophile count in broncho alveolar lavage fluid at 20 mg/kg, po thrice at 12 hrs interval; format: functional, organism-based; settings: Bronchoalveolar lavage
[11] = target: c-Jun N-terminal kinase (Mus musculus) (UniProt Q91Y86+Q9WTU6+Q61831); test: Inhibition of JNK phosphorylation in mouse J774A.1 cells assessed as decrease in LPS-stimulated JNK phosphorylation level pretreated at 10 uM for 1 hrs followed by induced with LPS for 40 mins by Western blot analysis; format: cell-based; settings: J774.1, time 100.0 min
Mus musculus [12] = test: Antiinflammatory activity against LPS-induced acute lung injury C57 mouse model assessed as decrease in LPS-induced TNFalpha level in serum at 20 to 40 mg/kg, po thrice at 12 hrs interval followed 30 mins treated with LPS by ELISA; format: functional, organism-based; settings: dose 20-40 mg/kg, time 36.5 hrs
[13] = Cmax in Sprague-Dawley rat at 10 mg/kg, iv measured upto 24 hrs by UPLC-MS/MS analysis; format: ADME, organism-based; parameters: dose 10 mg/kg, time < 24 hrs, route iv; settings: in vivo
[14] = AUC (0 to t) in Sprague-Dawley rat at 10 mg/kg, po measured upto 24 hrs by UPLC-MS/MS analysis; format: ADME, organism-based; parameters: dose 10 mg/kg, time < 24 hrs, route po; settings: in vivo
[15] = Cytotoxicity against mouse J774A.1 cells assessed as cell viability at 10 uM measured after 24 hrs incubation by MTT assay; format: toxicity, cell-based, J774.A1; settings: read-out: Activity
[16] = Half life in Sprague-Dawley rat at 10 mg/kg, iv measured upto 24 hrs by UPLC-MS/MS analysis; format: ADME, organism-based; settings: in vivo
J774.A1 [17] = test: Antiinflammatory activity against mouse J774A.1 cells assessed as inhibition of LPS-stimulated TNFalpha release measured after 30 mins by ELISA; format: functional, cell-based; settings: J774.A1, 0.5 h
[18] = Subacute toxicity in ICR mouse assessed as pathological change in heart at 500 to 100 mg/kg, IG measured for 10 days by hematoxylin and eosin dye based light microscopy; format: organism-based; settings: in vivo, po, 240 h, dose 500-100 mg/kg, time 10 day
Mus musculus [19] = test: Antiinflammatory activity against LPS-induced septic shock mouse model assessed as improvement in LPS-induced weight loss at 20 mg/kg, po pretreated 1 hr before LPS administration measured upto 120 hrs; format: functional, organism-based; settings: time <= 121.0 hrs
Mus musculus [20] = test: Antiinflammatory activity against LPS-induced acute lung injury C57 mouse model assessed as reduction in LPS-induced p-p65 level in lung tissue at 40 mg/kg, po thrice at 12 hrs interval followed 30 mins treated with LPS by Western blot analysis; format: functional, organism-based; settings: time 36.5 hrs
J774.A1 [21] = test: Antiinflammatory activity against mouse J774A.1 cells assessed as inhibition of LPS-stimulated IL6 release measured after 30 mins by ELISA; format: functional, cell-based; settings: J774.A1, 0.5 h
Mus musculus [22] = test: Antiinflammatory activity against LPS-induced acute lung injury C57 mouse model assessed as decrease in LPS-induced IL-6 level in serum at 20 to 40 mg/kg, po thrice at 12 hrs interval followed 30 mins treated with LPS by ELISA; format: functional, organism-based; settings: dose 20-40 mg/kg, time 36.5 hrs
Mus musculus [23] = test: Antiinflammatory activity against LPS-induced acute lung injury C57 mouse model assessed as decrease in LPS-induced IL-6 level in alveolar lavage fluid at 20 mg/kg, po thrice at 12 hrs interval; format: functional, organism-based; settings: Bronchoalveolar lavage
Mus musculus [24] = test: Antiinflammatory activity against LPS-induced acute lung injury C57 mouse model assessed as reduction in LPS-induced p-JNK level in lung tissue at 40 mg/kg, po thrice at 12 hrs interval followed 30 mins treated with LPS by Western blot analysis; format: functional, organism-based; settings: time 36.5 hrs
[25] = Subacute toxicity in ICR mouse assessed as pathological change in spleen at 500 to 100 mg/kg, IG measured for 10 days by hematoxylin and eosin dye based light microscopy; format: organism-based; settings: in vivo, po, 240 h, dose 500-100 mg/kg, time 10 day
Mus musculus [26] = test: Antiinflammatory activity against LPS-induced acute lung injury C57 mouse model assessed as decrease in LPS-induced IL-6 level in blood at 20 mg/kg, po thrice at 12 hrs interval; format: functional, organism-based
Mus musculus [27] = test: Antiinflammatory activity against LPS-induced acute lung injury C57 mouse model assessed as increase in IkappaBalpha level in lung tissue at 40 mg/kg, po thrice at 12 hrs interval followed 30 mins treated with LPS by Western blot analysis; format: functional, organism-based; settings: time 36.5 hrs
[28] = Subacute toxicity in ICR mouse assessed as change in body weight at 500 to 100 mg/kg, IG measured for 10 days; format: organism-based; settings: in vivo, po, 240 h, dose 500-100 mg/kg, time 10 day

Sequence of Transcription factor p65 (Mus musculus) (Q04207 whole entry): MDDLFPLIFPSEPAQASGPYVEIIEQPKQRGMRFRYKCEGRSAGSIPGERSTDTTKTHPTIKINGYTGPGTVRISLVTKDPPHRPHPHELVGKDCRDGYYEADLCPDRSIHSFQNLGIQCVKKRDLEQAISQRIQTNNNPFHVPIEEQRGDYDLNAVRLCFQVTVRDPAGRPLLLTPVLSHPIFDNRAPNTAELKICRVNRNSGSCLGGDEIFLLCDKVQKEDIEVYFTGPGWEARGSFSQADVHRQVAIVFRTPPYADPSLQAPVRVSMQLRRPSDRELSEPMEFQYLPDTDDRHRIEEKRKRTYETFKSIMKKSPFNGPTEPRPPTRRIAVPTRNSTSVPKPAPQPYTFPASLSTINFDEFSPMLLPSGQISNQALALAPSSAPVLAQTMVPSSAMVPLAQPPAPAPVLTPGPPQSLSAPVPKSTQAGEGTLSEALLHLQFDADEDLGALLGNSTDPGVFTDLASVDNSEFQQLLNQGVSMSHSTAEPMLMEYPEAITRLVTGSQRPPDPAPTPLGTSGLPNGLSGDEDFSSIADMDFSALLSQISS
Sequence of c-Jun N-terminal kinase (Mus musculus) (Q61831 whole entry, looked up): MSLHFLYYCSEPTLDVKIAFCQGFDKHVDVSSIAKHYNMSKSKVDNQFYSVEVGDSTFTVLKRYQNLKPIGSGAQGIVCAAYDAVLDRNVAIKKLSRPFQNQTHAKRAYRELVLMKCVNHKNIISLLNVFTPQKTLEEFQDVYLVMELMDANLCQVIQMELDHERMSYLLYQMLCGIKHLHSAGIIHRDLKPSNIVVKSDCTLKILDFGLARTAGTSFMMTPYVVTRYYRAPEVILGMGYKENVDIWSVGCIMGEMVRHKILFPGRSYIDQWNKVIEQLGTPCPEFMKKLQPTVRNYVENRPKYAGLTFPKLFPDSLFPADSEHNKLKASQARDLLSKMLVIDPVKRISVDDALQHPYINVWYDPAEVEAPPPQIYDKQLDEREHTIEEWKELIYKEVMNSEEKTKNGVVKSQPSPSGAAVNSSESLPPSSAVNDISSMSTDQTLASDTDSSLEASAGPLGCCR
Sequence of c-Jun N-terminal kinase (Mus musculus) (Q91Y86 whole entry, looked up): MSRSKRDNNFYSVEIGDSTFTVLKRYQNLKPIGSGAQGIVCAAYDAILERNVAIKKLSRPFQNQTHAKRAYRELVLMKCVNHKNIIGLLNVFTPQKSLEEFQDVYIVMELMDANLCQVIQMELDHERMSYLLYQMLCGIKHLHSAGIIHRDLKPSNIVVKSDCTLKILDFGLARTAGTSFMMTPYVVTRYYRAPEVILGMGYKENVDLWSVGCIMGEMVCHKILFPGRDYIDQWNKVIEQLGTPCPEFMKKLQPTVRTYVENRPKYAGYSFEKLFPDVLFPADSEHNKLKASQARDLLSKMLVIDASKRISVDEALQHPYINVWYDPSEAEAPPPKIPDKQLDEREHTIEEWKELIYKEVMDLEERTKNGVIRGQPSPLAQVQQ
Sequence of c-Jun N-terminal kinase (Mus musculus) (Q9WTU6 whole entry, looked up): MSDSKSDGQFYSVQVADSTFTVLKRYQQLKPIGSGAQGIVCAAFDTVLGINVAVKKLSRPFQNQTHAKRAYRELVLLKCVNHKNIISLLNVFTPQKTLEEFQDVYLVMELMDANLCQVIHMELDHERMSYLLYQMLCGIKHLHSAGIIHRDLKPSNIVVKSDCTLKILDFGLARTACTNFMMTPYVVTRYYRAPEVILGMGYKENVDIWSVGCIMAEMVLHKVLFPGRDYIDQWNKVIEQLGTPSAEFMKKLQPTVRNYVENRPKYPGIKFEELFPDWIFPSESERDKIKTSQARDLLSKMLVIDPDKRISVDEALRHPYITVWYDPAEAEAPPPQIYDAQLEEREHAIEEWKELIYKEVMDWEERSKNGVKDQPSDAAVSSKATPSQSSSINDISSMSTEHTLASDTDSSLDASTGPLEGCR

COc1cc2nccc(Oc3ccc(NC(=O)c4nn(-c5ccc(C)cc5)c(=O)cc4C)cc3)c2cc1OC
Activity [1]: Non-Toxic | Activity (J774.A1 [2]): Dose-Dependent Effect | inhibition at 10 µM (J774.A1 [3]): 71.5% | Activity (Mus musculus [4]): inactive | inhibition [5]: Active | Activity [6]: Active | inhibition at 10 µM (J774.A1 [7]): 56.8% | Activity (Mus musculus [8]): Active | Activity (Mus musculus [9]): Active | Activity (Mus musculus [10]): inactive | inhibition [11]: Active | Activity (Mus musculus [12]): Active | Cmax [13]: 1460 ng/mL | AUCt [14]: 7792.708 ng·h/mL | viability at 24 h, 10 µM [15]: > 80% | half-life [16]: 1.15 h | IC50 (J774.A1 [17]): 5.3 µM | Activity [18]: Non-Toxic | Activity (Mus musculus [19]): Active | Activity (Mus musculus [20]): Active | IC50 (J774.A1 [21]): 7.11 µM | Activity (Mus musculus [22]): Active | Activity (Mus musculus [23]): Active | Activity (Mus musculus [24]): Active | Activity [25]: Non-Toxic | Activity (Mus musculus [26]): Active | Activity (Mus musculus [27]): Active | Activity [28]: Non-Toxic
